Measurements published in patent US8063089B2, “Inhibitors of nucleophosmin (NPM) and methods for inducing apoptosis” (Arizona Board of Regents on Behalf of the University of …, priority 2007, dated 2011).

Assays:
[1] = system: Granta (-4, -22 and -519) mantle cell lymphoma cell lines; assay: MTT cell viability assay, Granta; format: cell-based, human; conditions: for IC50: Homo sapiens, 96 h, Granta-4, -22, -519, MTT
Description: Cells and Reagents. Human cancer cell lines used herein include prostate (LNCaP, PC3, DU145), colon (HCT116), lung (A549), breast (MCF7) purchased from American Type Culture Collection (Rockville, Md.) and mantle cell lymphoma (Granta-4, -22 and -519) were maintained in RPMI 1640 medium (Mediatech, Va.) supplemented with 10% fetal bovine serum, 2 mM sodium pyruvate and 100 units/ml penicillin/streptomycin at 37° C. in a humidified atmosphere of 5% CO2.

[2] = system: HCT116 colon cancer cells; assay: SCID mouse HCT116 colon cancer xenograft; format: in vivo, SCID mice; conditions: for survival: i.p. for 4 weeks, NSC348884 1.5 mg/kg Mon/Wed/Fri, doxorubicin 20 ug/kg Mon
Description: SCID mice were inoculated with 10×10^6 HCT116 colon cancer cells in their flanks to form measurable tumors in the range 60-100 mm^3. Mice were pair matched with 12 mice per arm. NSC348884 was administered (Monday, Wednesday, Friday), Doxorubicin (Monday), combination or vehicle by intra-peritoneal injection each for 4 weeks. Measurements of tumor growth were performed twice a week and tumor volume estimated according to the formula: [(width)^2×length]/2. Mice were weighed before the beginning of the experiment and twice a week thereafter to check for signs of toxicity. Control mice (upper panel, first bar) were treated with vehicle (DMSO), NSC348884 at 1.5 mg/kg NSC348884 (upper panel, second bar), very low dose doxorubicin at 20 ug/kg (upper panel, third bar), and the combination of NSC348884/doxorubicin (upper panel, fourth bar).

[3] = system: distinct cancer cell lines; assay: Inhibition of cell proliferation, summary; format: cell-based; conditions: Homo sapiens
Description: Cell Viability Assays. LNCaP, Granta-4, Granta-22 and Granta-519 cell lines were seeded into 96-well tissue culture plates with 50,000 cells per well, cultured for 24 hours and exposed to NSC348884, doxorubicin or combination for four days. All studies were performed in triplicate and were repeated 3 different times. After incubation, 20 μL of 2 mg/m L 3-(4,5-dimethylthiazol-2-yl)-2,5-diphenyltetrazolium bromide (MTT) were added to each well and incubated an additional four hours. The media and MTT dye were aspirated, and 100 μL dimethyl sulfoxide (DMSO) was added to each well, absorbance was read at 540 nm on a plate reader (Wallac Vector, PerkinElmer). Data was expressed as the percent survival of control calculated from the absorbance, corrected for background.

p53 [4] = assay: p53 immunocytochemistry; format: cell-based, human; conditions: LNCaP and A549, 5 μM, 6 h, versus vehicle
Description: Mounting evidences indicate that NPM negatively regulates tumor suppressor p53 through interaction with p53 directly to prevent its phosphorylation on Ser15 (Maiguel et al., 2004) or through binding with p14ARF to impair the ARF-Hdm2 association and increase Hdm2/p53 complex formation (Gjerset, 2006). NPM knockdown by small interfering RNA enhances p53 phosphorylation and transcriptional activity. Therefore, inhibition of NPM by NSC348884 could affect p53 status. To address this, LNCaP cells were untreated and treated with different dosage of NSC348884 for 2 h to 24 h, and the changes in p53 protein and phosphorylation levels were determined by Western blot. Indeed, NSC348884 increased both p53 protein level and phosphorylation on Ser15 in a dose-dependent manner after 2 h of incubation (FIG. 5A).
Immunocytochemistry. LNCaP, A549 or HCT116 cells grown on cover slips were treated with DMSO or 5 μM of NSC348884 for 6 hr and then fixed in cold methanol:acetone (3:7) for 5 minutes. The cover slips were washed twice with cold PBS and blocked with blocking buffer (1% BSA, 0.01% saponin and 1% normal mouse serum in PBS) for 1 hr at room temperature. The cover slips were then immunostained using anti-p53 antibody at the dilution 1:100 in blocking buffer overnight at 4° C. […]

LNCaP prostate cell line = assay: MTT cell viability assay, LNCaP; format: cell-based; conditions: Homo sapiens, 96 h, 4 days
Description: NPM plays an essential role in cellular activities such as ribosome biogenesis, cell proliferation, apoptosis and centrosome duplication. Therefore, inhibition of NPM should affect cell growth. To determine the effect of NPM inhibitor NSC348884 on cancer cell proliferation, cell viability assays were conducted on LNCaP and Granta (human mantle cell lymphoma) cells (Granta-519, -4, -22) with varying concentrations of NSC348884 over 4 days. […] The difference in IC50 is attributed to the differential proliferative capacity of the two types of cancer cell lines. Since Rev peptide binds to NPM and potentates the doxorubicin-induced decrease of cellular viability and inhibition of tumor growth in nude mice (Chan et al., 2005), we evaluated if NSC348884 would be additive or synergistic with doxorubicin, a therapy commonly used in this disease. An IC50 of 0.01-0.02 μM for doxorubicin was established for all 3 Granta cell lines, while at 0.1 nM doxorubicin had no effect on cell viability
Cells and Reagents. […]
Cell Viability Assays. […] The media and MTT dye were aspirated, and 100 μL dimethyl sulfoxide (DMSO) was added to each well, absorbance was read at 540 nm on a plate reader (Wallac Vector, PerkinElmer). Data was expressed as the percent survival of control calculated from the absorbance, corrected for background.

p53 [5] = assay: p53 / p21 Western blotting; format: cell-based, human
LNCaP cells = assay: Apoptosis by morphology (acridine orange/ethidium bromide fluorescent staining); format: cell-based, human; conditions: 24 hr
Description: (§1) Apoptosis Assays. Drug treated LNCaP cells were examined for apoptotic morphology using a fluorescence staining technique as described previously (Qi and Martinez, 2003). Briefly, cells were exposed to DMSO or 1 to 5 μM of NSC348884 for 24 hr and were harvested by trypsinization. After staining with a mixed dye solution containing […] each of acridine orange and ethidium bromide the morphology of the cells were observed by fluorescence microscopy, and the number of apoptotic cells was quantified. Studies were performed in triplicate and mean+SD calculated. In all cases a minimum of 200 cells were counted for each sample. Using Annexin V staining to detect apoptosis, treated MCF-7, PC-3, DU145 and Granta (−519, −4, −22) cells were harvested by trypsinization and rinsed with cold PBS once. After centrifugation for 5 min, cancer cells were resuspended in 500 μl of 1 Annexin V binding buffer (BioVision, Annexin V-FITC Reagent Kit, Cat. #1001-1000) and then added 1 μl of Annexin V-FITC and 1 μl of Propidium Iodide (BioVision, Annexin VFITC Reagent Kit). After incubation for 5 min at room temperature in the dark, the samples were analyzed by flow cytometry.

14-3-3 dimer = 14-3-3 dimer formation control, native PAGE; format: cell-based, human; conditions: LNCaP and HCT116 cells, 5 and 6 μM, 24 hr
Description: (§2) To examine whether NSC348884 specifically interacts with NPM and disrupts its oligomer formation, LNCaP and HCT116 cells with wild type NPM (no translocations) were treated with varying concentrations of NSC348884 (0, 5, 6 μM) for 24 hr, lyzed under non-denaturing conditions and analyzed by native PAGE which is an excellent tool for detecting oligomers and aggregates since the protein retains its folded conformation. We utilized 14-3-3 which forms dimers as a control. […] The two bands shown in HCT116 represent different isoforms of 14-3-3 proteins. Taken together, NSC348884 is able to bind to NPM and interfere with oligomer formation of NPM specifically.
(§3) Immunoblotting. LNCaP or HCT116 cells were lysed in NP-40 lysis buffer containing 50 mM Tris-Cl (pH 7.4), 0.15 M NaCl, 0.5% NP-40, 1 mM DTT, 50 mM sodium fluoride and 2 μl/ml of a protease inhibitor cocktail (Sigma, St. Louis, Mo.). Protein concentrations were-determined using the Bio-Rad protein assay kit (Hercules, Calif.) and 50 μg of protein was resolved by electrophoresis on a 10% SDS-PAGE. […] The membrane was subjected to the indicated antibodies and the proteins were detected by the SuperSignal West Pico detection system (Pierce, Rockford, Ill.). […]

LNCaP = assay: Apoptosis markers by immunoblotting (PARP cleavage, H2AX phosphorylation); format: cell-based, human; conditions: 4 and 5 μM
Description: Immunoblotting. LNCaP or HCT116 cells were lysed in NP-40 lysis buffer containing 50 mM Tris-Cl (pH 7.4), 0.15 M NaCl, 0.5% NP-40, 1 mM DTT, 50 mM sodium fluoride and 2 μl/ml of a protease inhibitor cocktail (Sigma, St. Louis, Mo.). Protein concentrations were-determined using the Bio-Rad protein assay kit (Hercules, Calif.) and 50 μg of protein was resolved by electrophoresis on a 10% SDS-PAGE. The proteins were then transferred onto a nitrocellulose membrane and nonspecific binds were blocked by incubating with 5% nonfat milk in TBST buffer (0.01 M Tris-Cl, pH 8.0, 0.15 M NaCl, 0.5% Tween-20) at room temperature for 1 hr. The membrane was subjected to the indicated antibodies and the proteins were detected by the SuperSignal West Pico detection system (Pierce, Rockford, Ill.). For native PAGE gel experiment, the samples were not denatured by heating and the electrophoresis was run in the absence of SDS.

[6] = system: MCF7, PC-3, DU145 and Granta cells; assay: Annexin V staining and flow cytometry; format: cell-based, human; conditions: several different cancer cell lines, 24 h
Description: Furthermore, apoptosis induced by NSC348884 was confirmed by Annexin V staining and flow cytometry (FACS) analysis.
as §1

NPM oligomer = molecular target: T1, NPM oligomer (Homo sapiens, UniProt P06748); assay: NPM oligomer formation by native PAGE / immunoblotting; format: cell-based; conditions: LNCaP and HCT116 cells, 5 and 6 μM, 24 hr
T1 construct: endogenous in cells; host or cells: LNCaP and HCT116
Description: as §2, §3

T1 sequence (P06748 whole entry): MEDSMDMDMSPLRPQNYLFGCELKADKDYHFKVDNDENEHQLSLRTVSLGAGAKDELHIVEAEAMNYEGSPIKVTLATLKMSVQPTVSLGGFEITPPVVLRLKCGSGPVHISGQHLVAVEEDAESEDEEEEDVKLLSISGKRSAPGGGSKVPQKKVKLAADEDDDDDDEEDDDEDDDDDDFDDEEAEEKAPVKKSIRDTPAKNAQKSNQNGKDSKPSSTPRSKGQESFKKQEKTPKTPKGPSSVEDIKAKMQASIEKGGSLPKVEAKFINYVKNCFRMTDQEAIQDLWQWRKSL

| SMILES | IC50 ([1]; 4 days) | effect on cell viability ([1]; doxorubicin at 0.1 nM alone) | survival [2] | IC50 [3] | p53 by immunocytochemistry staining (p53 [4]) | IC50 (LNCaP prostate cell line) | p21 protein level (p53 [5]; HCT116, 5 μM, 24 h) | p53 protein level and phosphorylation on Ser15 (p53 [5]; LNCaP, after 2 h of incubation) | p53 level (p53 [5]; breast cancer cell line MCF7) | apoptosis by morphology, dose dependence (LNCaP cells; 0-5 μM) | apoptosis by morphology (LNCaP cells; 4 and 5 μM) | effect on cell viability ([1]; NSC348884 at 1 μM alone, 4 days, MTT) | 14-3-3 dimer formation (14-3-3 dimer) | survival advantage ([2]; versus control) | PARP-cleavage and H2AX phosphorylation on Ser139 (LNCaP) | apoptosis by Annexin V binding [6] | NPM oligomer formation (NPM oligomer) |
| --- | --- | --- | --- | --- | --- | --- | --- | --- | --- | --- | --- | --- | --- | --- | --- | --- | --- |
| COc1cccc2c1C(=O)c1c(O)c3c(c(O)c1C2=O)C[C@@](O)(C(=O)CO)C[C@@H]3O[C@H]1C[C@H](N)[C@H](O)[C@H](C)O1 [doxorubicin, reference compound] | 10 to 20 nM | no effect | 41 days | – | – | – | – | – | – | – | – | – | – | – | – | – | – |
| Cc1ccc2nc(CN(CCN(Cc3nc4ccc(C)cc4[nH]3)Cc3nc4ccc(C)cc4[nH]3)Cc3nc4ccc(C)cc4[nH]3)[nH]c2c1 [NSC348884, N,N,N′,N′-tetrakis[(5-methyl-2-benzimidazolyl)methyl]-1,2-ethanediamine] | ~1700 nM | – | 53 days | 1700 to 4000 nM | higher p53 proteins were induced | ~4000 nM | up-regulated | increased | enhanced p53 | dose-dependent increase in apoptosis | > 50% | no effect | no effect | statistically significant survival advantage | correlated well with PARP-cleavage and induction H2AX phosphorylation | induced apoptosis | disrupted |
